Test system: cells which co-expressed CD49c and CD90
Assay: qPCR of Sox-2 and Musashi transcripts with and without nifedipine treatment
Format: cell-based, human
Details: 5 μM nifedipine
Procedure: The expression of transcripts for Sox-2 and Musashi were determined using quantitative polymerase chain reaction (qPCR). Briefly, Master Cell Bank of CFUs were derived from a bone marrow aspirate and stored as frozen aliquots using the method of Example 1. An aliquot was thawed and the cells were seeded in 96 well plates at 2000 cells/well in complete media and incubated at 37° C. in an atmosphere consisting of 5% carbon dioxide, 5% oxygen and 90% nitrogen for 3 days. On the third day of culture, cells were treated with 5 μM nifedipine (an L-type calcium channel blocker). After 24 hours of treatment, RNA was isolated using the QIAGEN®RNeasy reagents and the Qiagen Biorobot 3000. An aliquot of the eluted RNA was used to synthesize cDNA. Specifically, RNA was mixed with Promega MMLV, dNTPS, decamers and RNasin and incubated at 37° C. for 1 hour, followed by heat inactivation.
For quantitative PCR, cDNA samples were combined with Applied Biosystems SYBR Green PCR Core reagents and amplicon specific primers, as described below, in a 384 well format. The 384 well plate was then transferred to the Applied Biosystems ABI Prism 7900 for qPCR analysis. The qPCR program entailed a 2 minute cycle at 50 degrees, followed by a 10 minute cycle at 95 degrees to activate the polymerase. This was then followed by 40 amplification cycles consisting of 15 seconds of melting at 95 degrees and one minute of extension/annealing at 60 degrees. Cycle threshold values were converted into relative transcript number using a standard curve then normalized using the corresponding 18s. Data are expressed as a ratio of transcript per 10^6 18s transcripts.

## COC(=O)C1=C(C)NC(C)=C(C(=O)OC)C1c1ccccc1[N+](=O)[O-] [nifedipine]
24 hours
  Sox-2 expression in response to nifedipine: 28 transcripts/10^6 transcripts of 18S RNA
24 hours of stimulation
  Musashi expression in response to nifedipine: 0.093 transcripts/10^6 transcripts of 18S RNA
24 hours vs unstimulated
  increase in Musashi expression: ~17 fold
  increase in Sox-2 expression: ~7 fold

Source: patent US9969977B2, “Cell populations which co-express CD49c and CD90” (GARNET BIOTHERAPEUTICS, priority 2002, dated 2018)
